For 9 compounds, TGI results are on record in PubChem BioAssay (NCI).

Some test systems named below: 786-0 renal; EKVX NSCLC; HL-60(TB) leukemia; K-562 leukemia; MDA-MB-231 breast; NCI-H226 lung; RPMI-8226 leukemia; SF-268 CNS; SN12C renal; SNB-75 CNS; UACC-62 melanoma; OVCAR-4 ovarian; SF-295 CNS.
Holding throughout (assay): growth of human tumour cells (NCI), 48 h

“And” between values parts separate entries of the source, which are not always exact repeats. Identical values can stand only once.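 A five-concentration, 48-hour dose response in 96-well plates underlies each endpoint, interpolated linearly between surrounding concentrations. The concentration for full growth arrest is given as TGI.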

For `Cn1c(=O)c(Br)c(C=O)n(CCO[N+](=O)[O-])c1=O`, the TGI is 17.3 µM with 786-0 renal; 7.07 µM in the experiment with EKVX NSCLC; 4.46 µM with HL-60(TB) leukemia; 8.82 µM in the experiment with K-562 leukemia; 8.4 µM with MDA-MB-231 breast; greater than 100 µM in the experiment on NCI-H226 lung. The TGI with RPMI-8226 leukemia worked out at 7.42 µM; in the experiment on SF-268 CNS, 31.3 µM; in the experiment on SN12C renal it was 17.4 µM; in the experiment on SNB-75 CNS it was 27 µM; in the experiment on UACC-62 melanoma it was 4.9 µM.
As for `C=C(C)C1=CCC[C@]2(C1)N=C(OC)[C@@H](C(C)C)N=C2OC`, the TGI in the experiment on 786-0 renal was greater than 100 µM; in the experiment with EKVX NSCLC it was greater than 100 µM; in the experiment with HL-60(TB) leukemia, 87.9 µM; in the experiment on MDA-MB-231 breast, greater than 100 µM; with NCI-H226 lung, greater than 100 µM; in the experiment with OVCAR-4 ovarian, greater than 100 µM. In addition, the TGI in the experiment with RPMI-8226 leukemia was 47.9 µM; with SF-268 CNS it was greater than 100 µM; with SF-295 CNS, greater than 100 µM; in the experiment with SN12C renal, greater than 100 µM; in the experiment with SNB-75 CNS, greater than 100 µM; in the experiment on UACC-62 melanoma, greater than 100 µM.
With `CN(C)Nc1cc(=O)[nH]c(=O)[nH]1`, the TGI with 786-0 renal, with EKVX NSCLC, in the experiment on HL-60(TB) leukemia, in the experiment with K-562 leukemia, in the experiment with MDA-MB-231 breast and in the experiment with NCI-H226 lung was greater than 100 µM in each case. Further, the TGI in the experiment with OVCAR-4 ovarian, with RPMI-8226 leukemia, in the experiment with SF-268 CNS, with SF-295 CNS and in the experiment on SN12C renal was greater than 100 µM throughout.
`COc1ccc(-c2c(C#N)c(N)n(C3OCC(OC(C)=O)C(OC(C)=O)C3OC(C)=O)c(=S)c2C#N)cc1` (centres undefined): the TGI was greater than 100 µM in the experiment with 786-0 renal; greater than 100 µM with EKVX NSCLC; 36.5 µM and 35.9 µM with HL-60(TB) leukemia; greater than 100 µM in the experiment with MDA-MB-231 breast; greater than 100 µM in the experiment on NCI-H226 lung; greater than 100 µM with OVCAR-4 ovarian. Besides, the TGI with RPMI-8226 leukemia was 75.1 µM and 97.5 µM; in the experiment with SF-268 CNS, greater than 100 µM; in the experiment on SF-295 CNS it was greater than 100 µM; with SN12C renal, greater than 100 µM; in the experiment with SNB-75 CNS, greater than 100 µM; in the experiment with UACC-62 melanoma, greater than 100 µM.
For the compound `O=c1oc2ccc3ccccc3c2cc1-c1cn2ccccc2n1`, the TGI with 786-0 renal, in the experiment with EKVX NSCLC, in the experiment on HL-60(TB) leukemia, with K-562 leukemia, with MDA-MB-231 breast and with NCI-H226 lung was greater than 100 µM in each case. Besides, the TGI with RPMI-8226 leukemia, with SF-268 CNS, in the experiment with SF-295 CNS, in the experiment with SN12C renal, in the experiment with SNB-75 CNS and in the experiment with UACC-62 melanoma was greater than 100 µM each time.
As for `O=C1/C(=C/c2ccccc2O)N=C(c2ccccc2)N1C1Nc2cc3c(cc2S1)NC(N1C(=O)/C(=C/c2ccccc2O)N=C1c1ccccc1)S3` (centres undefined), the TGI with 786-0 renal, in the experiment with EKVX NSCLC, with HL-60(TB) leukemia, with K-562 leukemia, with MDA-MB-231 breast and in the experiment on NCI-H226 lung was greater than 100 µM throughout. In addition, the TGI was greater than 100 µM in the experiment with OVCAR-4 ovarian, greater than 100 µM in the experiment on RPMI-8226 leukemia, 59.6 µM with SF-268 CNS and greater than 100 µM in the experiment with SF-295 CNS.
Take `O=C(NC1=NCC(CN2CCN(c3ccccc3)CC2)O1)Nc1ccccc1` (centres undefined): the TGI with 786-0 renal, with EKVX NSCLC, in the experiment with HL-60(TB) leukemia, with K-562 leukemia, with MDA-MB-231 breast and in the experiment with NCI-H226 lung was greater than 100 µM each time. Further, the TGI in the experiment with OVCAR-4 ovarian, in the experiment on RPMI-8226 leukemia, in the experiment on SF-268 CNS, in the experiment on SF-295 CNS, in the experiment with SN12C renal and in the experiment on UACC-62 melanoma was greater than 100 µM throughout.
For the compound `CSc1nc(C#N)c(/N=C\N(C)C)n1C`, the TGI with 786-0 renal, with EKVX NSCLC, with HL-60(TB) leukemia, in the experiment on K-562 leukemia, in the experiment with MDA-MB-231 breast and in the experiment on NCI-H226 lung was greater than 100 µM each time. The TGI in the experiment on OVCAR-4 ovarian, with RPMI-8226 leukemia, in the experiment on SF-268 CNS, in the experiment with SF-295 CNS, in the experiment with SN12C renal and in the experiment with UACC-62 melanoma was greater than 100 µM throughout.
As to `O=C(CC(=O)N(C(=O)/C=C\c1ccccc1)c1ccc(Cl)cc1)N1N=C(c2ccccc2)C(N=Nc2cccc([N+](=O)[O-])c2)C1=O` (centres undefined), the TGI was 19.6 µM with 786-0 renal; greater than 100 µM in the experiment with EKVX NSCLC; 11.1 µM with HL-60(TB) leukemia; 68.6 µM in the experiment on K-562 leukemia; 37.7 µM in the experiment on MDA-MB-231 breast; 55.9 µM in the experiment with NCI-H226 lung. For the same compound, the TGI in the experiment with RPMI-8226 leukemia was 93.4 µM; in the experiment with SF-268 CNS it was 26.2 µM; in the experiment on SF-295 CNS it was 25.2 µM; in the experiment with SN12C renal, greater than 100 µM; with SNB-75 CNS, 29.3 µM; in the experiment on UACC-62 melanoma it was 42.1 µM.
